Assay results from patent publication US8835503B2, “Pharmaceutical composition containing GLUR2-lacking AMPAR antagonist for preventing or treating psychiatric illnesses” (SNU R&DB Foundation, priority 2009, dated 2014).

Tested on: fear memory renewal
Assay: Blocking of fear memory renewal by NASPM administered into the amygdala (freezing response)
Format: in vivo, rat
Settings: for fear responses (freezing) in memory renewal test: 15 minutes before measuring fear memory, vs control group
Experimental: For fear memory learning, the rats were exposed to sound stimuli of a single tone (2.8 kHz, 85 dB) for 30 seconds, and subjected to an electric foot shock (1.0 mA) for 1 second at the end of said 30-second period. The sound stimuli and the electric foot shock were repeated 3 times at 100 second intervals. 1 minute later after the last electric foot shock, the rats were returned to their home cages. On day 2, fear memory learning was performed in the same way.
From day 3, memory extinction was performed in a context different from that of the fear memory learning On day 4, the rats were exposed to only sound stimuli 20 times at 100 second intervals without an electric foot shock. On days 5 and 6, the sound stimuli were repeated 15 times at 100 second intervals.
On day 7, memory renewal test was performed. The rats experienced memory extinction were placed in the place of the fear memory learning for 10 minutes, and then, memory renewal was induced by exposing the rats to sound stimuli for 30 seconds.
The experiment was performed using the rats which experienced fear memory learning, memory extinction and memory renewal in accordance with the method described in Example 1-1. White rats, 8-9 weeks old (Sprague-Dawley Rat, Male; Samtako, Korea), were used.
The rats were anesthetized by intraperitoneal injection of pentobarbital sodium (50 mg/kg; Entobal, Hanlim Pharma, Co., Ltd., Korea). After fully anesthetized, the rats were mounted on a stereotaxic apparatus (David Kopf Instruments, Tujunga, Calif., USA), and then, stainless steel cannulas of 26 gauge (Model C315G, Plastic Products, Roanoke, Va., USA) were implanted bilaterally into the amygdala (AP; […], ML; +/−5.15, DV; −7.0 mm) by operation. A 32 gauge dummy cannula was inserted into each cannula to prevent clogging. After a recovery period of at least 1 week, the rats were subjected to fear memory learning, memory extinction and memory renewal tests. […]
Conditioned freezing was defined as immobility except for respiratory movements, and was quantified by trained observers that were blind to the experimental groups.

N-naphthylspermine [NASPM]
fear responses (freezing) in memory renewal test (10 μg NASPM into the amygdala): insignificant effect | fear responses (freezing) in memory renewal test (40 μg NASPM into the amygdala): remarkably less fear responses | blocking of fear memory renewal (administered in the amygdala, 10 μg and 40 μg): blocks the fear memory renewal in a concentration-dependent manner
